As a reminder, the Ki is the dissociation constant of the complex between target and ligand, obtained from inhibition or displacement. A lower Ki goes with tighter binding. As usually defined, the IC50 is the concentration that gives 50% inhibition. A lower IC50 goes with inhibition by little substance.

The results in this text go back to ChEMBL document CHEMBL1142727 (J Med Chem, 2005).

The nature of assay [1]: Inhibitory ratio for bovine acetylcholinesterase and equine butyrylcholinesterase.
The next assay concerns the target Butyrylcholinesterase (Equus caballus, UniProt Q9N1N9).
Assay [2] has as its target T1, Acetylcholinesterase (Bos taurus, UniProt P23795).
T1 sequence (P23795 whole entry): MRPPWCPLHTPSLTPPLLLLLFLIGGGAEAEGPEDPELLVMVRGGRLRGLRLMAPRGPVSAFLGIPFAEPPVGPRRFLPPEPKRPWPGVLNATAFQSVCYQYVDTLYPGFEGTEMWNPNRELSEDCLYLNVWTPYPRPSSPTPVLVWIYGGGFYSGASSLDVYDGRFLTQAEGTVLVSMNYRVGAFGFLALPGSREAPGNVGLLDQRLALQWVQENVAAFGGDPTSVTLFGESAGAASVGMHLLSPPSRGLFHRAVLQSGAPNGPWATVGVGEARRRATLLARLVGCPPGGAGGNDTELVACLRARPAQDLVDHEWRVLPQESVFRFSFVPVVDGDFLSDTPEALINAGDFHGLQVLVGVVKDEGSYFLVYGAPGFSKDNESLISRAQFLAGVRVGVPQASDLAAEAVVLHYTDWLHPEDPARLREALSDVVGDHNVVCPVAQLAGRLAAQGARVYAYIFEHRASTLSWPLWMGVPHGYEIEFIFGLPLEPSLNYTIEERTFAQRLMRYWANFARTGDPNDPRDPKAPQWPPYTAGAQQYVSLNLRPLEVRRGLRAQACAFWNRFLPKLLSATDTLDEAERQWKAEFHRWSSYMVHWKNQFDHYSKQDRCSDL
Description: Dissociation constant for inhibition of fetal bovine serum Acetylcholinesterase

A further assay addresses Cholinesterase (Homo sapiens, UniProt P06276). The assay can be described thus: Inhibitory concentration against human butyrylcholinesterase.
Assay [3] has as its target Acetylcholinesterase (Homo sapiens, UniProt P22303). The assay can be described thus: Inhibitory concentration against human Acetylcholinesterase.

Cholinesterase, sequence (P06276 whole entry): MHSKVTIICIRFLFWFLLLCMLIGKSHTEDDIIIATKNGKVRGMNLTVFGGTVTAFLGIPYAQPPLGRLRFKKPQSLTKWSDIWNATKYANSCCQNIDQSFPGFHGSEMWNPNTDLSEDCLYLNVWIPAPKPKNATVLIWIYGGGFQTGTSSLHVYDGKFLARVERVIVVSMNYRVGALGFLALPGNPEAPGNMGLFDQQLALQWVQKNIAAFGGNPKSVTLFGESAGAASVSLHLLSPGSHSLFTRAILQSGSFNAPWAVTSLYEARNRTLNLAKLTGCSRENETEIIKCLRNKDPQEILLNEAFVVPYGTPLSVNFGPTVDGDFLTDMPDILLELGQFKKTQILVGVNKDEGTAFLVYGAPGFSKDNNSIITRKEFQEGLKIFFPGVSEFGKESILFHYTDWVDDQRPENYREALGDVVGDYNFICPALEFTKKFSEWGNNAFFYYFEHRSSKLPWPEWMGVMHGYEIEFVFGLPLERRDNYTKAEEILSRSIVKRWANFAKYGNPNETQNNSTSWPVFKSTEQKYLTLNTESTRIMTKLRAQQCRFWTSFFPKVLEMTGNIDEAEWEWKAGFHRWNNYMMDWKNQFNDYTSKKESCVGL
Butyrylcholinesterase, sequence (Q9N1N9 whole entry): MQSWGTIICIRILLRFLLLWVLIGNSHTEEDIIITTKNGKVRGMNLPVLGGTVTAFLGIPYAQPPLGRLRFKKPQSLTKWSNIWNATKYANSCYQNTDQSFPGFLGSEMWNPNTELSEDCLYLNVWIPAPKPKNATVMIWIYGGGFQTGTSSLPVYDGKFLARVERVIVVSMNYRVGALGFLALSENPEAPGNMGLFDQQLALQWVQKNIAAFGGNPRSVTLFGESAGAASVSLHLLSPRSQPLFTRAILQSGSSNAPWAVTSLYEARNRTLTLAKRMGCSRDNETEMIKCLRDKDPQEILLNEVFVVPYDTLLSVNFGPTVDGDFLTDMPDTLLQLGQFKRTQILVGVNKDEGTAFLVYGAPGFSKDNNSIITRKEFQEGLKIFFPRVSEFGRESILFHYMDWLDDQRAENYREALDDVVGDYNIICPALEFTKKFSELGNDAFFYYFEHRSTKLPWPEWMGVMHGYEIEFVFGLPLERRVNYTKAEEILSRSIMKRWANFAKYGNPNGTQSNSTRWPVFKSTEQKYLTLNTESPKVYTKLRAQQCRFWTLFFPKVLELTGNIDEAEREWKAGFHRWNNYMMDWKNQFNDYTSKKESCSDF
Acetylcholinesterase (Homo sapiens, UniProt P22303), sequence (P22303 whole entry): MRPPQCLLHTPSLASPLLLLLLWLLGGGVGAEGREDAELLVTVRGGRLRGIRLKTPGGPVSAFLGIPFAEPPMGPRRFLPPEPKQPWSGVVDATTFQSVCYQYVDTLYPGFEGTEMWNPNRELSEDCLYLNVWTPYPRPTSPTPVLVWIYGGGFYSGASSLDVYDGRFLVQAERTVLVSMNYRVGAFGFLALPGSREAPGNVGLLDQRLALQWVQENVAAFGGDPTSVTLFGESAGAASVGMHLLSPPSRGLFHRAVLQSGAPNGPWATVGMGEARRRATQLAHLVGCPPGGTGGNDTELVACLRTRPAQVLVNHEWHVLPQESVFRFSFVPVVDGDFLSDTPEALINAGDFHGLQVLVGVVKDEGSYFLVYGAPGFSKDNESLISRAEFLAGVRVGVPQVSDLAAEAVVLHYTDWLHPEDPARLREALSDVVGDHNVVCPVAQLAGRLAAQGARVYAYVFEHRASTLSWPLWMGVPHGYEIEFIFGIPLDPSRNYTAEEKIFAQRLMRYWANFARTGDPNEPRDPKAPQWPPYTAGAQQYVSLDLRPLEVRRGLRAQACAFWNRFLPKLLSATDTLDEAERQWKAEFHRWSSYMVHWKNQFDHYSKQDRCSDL
Description for Butyrylcholinesterase: Dissociation constant for inhibition of equine Butyrylcholinesterase (BuChE)

`CC(=O)N(CCCNc1c2c(nc3ccccc13)CCCC2)CCCNc1c2ccccc2nc2ccccc12`: the Ratio in assay [1] was found to be 750. The values for the Ki on Butyrylcholinesterase and on Acetylcholinesterase [2] were 2 nM and 1500 nM, respectively. Also, it took 3.9 nM to reach half-maximal inhibition at Cholinesterase (IC50).
For `c1ccc2c(NCCCCCCCCCSc3c4c(nc5ccccc35)CCCC4)c3c(nc2c1)CCCC3`, the Ratio in assay [1] was 86. Moreover, the Ki at Butyrylcholinesterase turned out to be 2.3 nM; on Acetylcholinesterase [2], 195 nM.
With `CC(=O)N(CCCNc1c2c(nc3ccccc13)CCCC2)CCCSc1c2c(nc3ccccc13)CCCC2`, in assay [1], the Ratio stood at 217. For the same compound, the Ki at Butyrylcholinesterase was found to be 0.23 nM; on Acetylcholinesterase [2] it was 50 nM.
Take `C=CCN(CCCNc1c2c(nc3ccccc13)CCCC2)CCCNc1c2ccccc2nc2ccccc12`: the Ratio in assay [1] is 2.1. The Ki on Butyrylcholinesterase came to 0.76 nM; at Acetylcholinesterase [2], 1.6 nM.
Consider `CCN(CC)C(C)CN1c2ccccc2Sc2ccccc21` (stereo not given) [ETHOPROPAZINE], for which the Ki on Butyrylcholinesterase came out at 20 nM.
Consider `OCCN(CCCNc1c2c(nc3ccccc13)CCCC2)CCCNc1c2ccccc2nc2ccccc12`, for which the Ratio in assay [1] is 0.2. The Ki came out at 3.3 nM at Butyrylcholinesterase and 0.65 nM on Acetylcholinesterase [2].
For the compound `c1ccc2c(NCCCCCCCSc3c4c(nc5ccccc35)CCCC4)c3c(nc2c1)CCCC3`, the Ratio in assay [1] was 9.7.
`c1ccc2c(NCCCCCNc3c4c(nc5ccccc35)CCCC4)c3c(nc2c1)CCCC3`: the Ratio in assay [1] stood at 2.1. The Ki at Butyrylcholinesterase amounted to 100 nM; on Acetylcholinesterase [2] it was 210 nM.
Take `CC(=O)N(CCCCSc1c2c(nc3ccccc13)CCCC2)CCCNc1c2c(nc3ccccc13)CCCC2`: the Ratio in assay [1] was 427. Also, the Ki at Butyrylcholinesterase came to 0.11 nM; at Acetylcholinesterase [2], 47 nM.
For `c1ccc2c(NCCCCCCCCSc3c4c(nc5ccccc35)CCCC4)c3c(nc2c1)CCCC3`, in assay [1], the Ratio came to 625. For the same compound, the IC50 against Cholinesterase was 0.77 nM.
`CN(CCCNc1c2c(nc3ccccc13)CCCC2)CCCNc1c2c(nc3ccccc13)CCCC2`: in assay [1], the Ratio stood at 0.01. The IC50 on Acetylcholinesterase [3] turned out to be 0.3 nM; on Cholinesterase, 10.4 nM.
Take `CN(CCCCSc1c2c(nc3ccccc13)CCCC2)CCCNc1c2c(nc3ccccc13)CCCC2`: the Ratio in assay [1] came to 191. Moreover, the Ki on Butyrylcholinesterase is 0.68 nM; on Acetylcholinesterase [2] it was 130 nM.
As to `CN(CCCNc1c2c(nc3ccccc13)CCCC2)CCCSc1c2c(nc3ccccc13)CCCC2`, the Ratio in assay [1] was 2.2. The Ki on Butyrylcholinesterase came to 4.2 nM; on Acetylcholinesterase [2], 9.1 nM.
